Reference: patent US20070059773A1, “Identification of therapeutic compounds” (priority 2003, published 2007)
≈ marks a conversion by molar mass, not a printed value. Read-outs that look alike come from different tables or passages of the source.

Columns and labels:
[1] = biological target: T1, rat cortex A1 receptor (Rattus norvegicus, UniProt P25099); assay: Displacement of 3H-DPCPX from the rat cortex A1 receptor; assay type: binding
T1 construct: from tissue; host or cells: rat cortex
T1 sequence (P25099 1-326): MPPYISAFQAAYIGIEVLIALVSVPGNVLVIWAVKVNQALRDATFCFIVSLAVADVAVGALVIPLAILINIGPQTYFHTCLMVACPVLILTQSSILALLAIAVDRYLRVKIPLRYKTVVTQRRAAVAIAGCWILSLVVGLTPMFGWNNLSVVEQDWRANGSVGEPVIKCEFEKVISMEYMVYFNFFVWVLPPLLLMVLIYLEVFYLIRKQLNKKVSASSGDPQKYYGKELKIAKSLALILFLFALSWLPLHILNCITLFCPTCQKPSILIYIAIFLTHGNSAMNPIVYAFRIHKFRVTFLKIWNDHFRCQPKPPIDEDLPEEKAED

[2] = biological target: T2, rat striatal A2A receptor (Rattus norvegicus, UniProt P30543); details: for number of affinity states revealed: Tables 1 and 2; for number of affinity states revealed / effect of GTP on the high affinity states: lower pH; for high affinity states as proportion of the total number of binding sites: lower pH (5.5); for effect of GTP on the high affinity states: presence of GTP
[3] = biological target: T2, rat striatal A2A receptor; assay: biochemical
[4] = 20 mg/kg po; cited from earlier work
[5] = Plasma concentration after administration; details: rat, in vivo
[6] = system: carrageenan (CGN) induced inflammation; assay: Carrageenan induced inflammation (paw volume by plethysmometry); assay type: in vivo; details: 62.4 and 624 μg/kg i.p.; compared with indomethacin 3 mg/kg po
Procedure: Carrageenan (2%, 10 microlitres) was administered into the right hind paw, and the paw volume assessed by plethysomometry. 2-methoxyadenosine was administered at the same time as carrageenan.

[7] = system: thermal hyperalgesia caused by chronic constriction injury of the rat sciatic nerve; assay: Chronic constriction injury model of neuropathic pain; assay type: in vivo; details: 0.624 mg/kg p.o., compared with carbamazepine 100 mg/kg s.c.
From the text: After approximately two weeks the rats developed thermal hyperalgesia in the operated leg as judged by the difference in paw withdrawal latencies of the right and left paws.

[8] = system: carageenan-induced inflammation; details: rats, 20 mg/kg po; cited from earlier work
[9] = biological target: adenosine A2A receptor; details: cited from earlier work
[10] = Blood pressure and heart rate by implanted radiotelemetry; assay type: in vivo; details: 0.624 mg/kg p.o., rat
Procedure: An implantable radiotelemetry device was placed in the abdominal cavity of 6 rats per group. The pressure catheter of the device was inserted in the abdominal aorta and two electrodes tunnelised under the skin in a lead II position (left side of abdominal cavity/right shoulder). Individual rats were placed in their own cage on a radioreceptor (DSI) for data acquisition. The effect of 0.6 mg/kg 2 methoxyadenosine or vehicle (p.o.) on blood pressure was then assessed. The results are shown in FIG. 5: A: blood pressure; B: heart rate.

[11] = system: carrageenan (CGN) induced thermal hyperalgesia; assay: Carrageenan induced thermal hyperalgesia (paw withdrawal latency); assay type: in vivo; details: 0.6 mg/kg, given with carrageenan; compared with indomethacin 3 mg/kg po
Procedure: Carrageenan (2%, 10 microlitres) was administered into the right hind paw. A heat source was placed close to the treated and untreated hind paws, and the difference in the paw withdrawal latencies is shown. 2-methoxyadenosine was administered at the same time as carrageenan.

[12] = biological target: T3, human A2A receptor (Homo sapiens, UniProt P29274); assay: cAMP accumulation in HEK293 cells expressing the human A2A receptor; assay type: cell-based
T3 construct: expressed in transfected cells; host or cells: HEK293
From the text: The human A2A receptor was expressed in HEK293 cells, and the ability of agonists to stimulate cAMP accumulation assessed in the presence of rolipram to inhibit phosphodiesterase enzymes.

[13] = biological target: T4, human A1 receptor (Homo sapiens, UniProt P30542); assay: Displacement of [3H]-DPCPX from the human A1 receptor; assay type: binding; details: read-out: Ki high affinity sites
T4 sequence (P30542 1-326): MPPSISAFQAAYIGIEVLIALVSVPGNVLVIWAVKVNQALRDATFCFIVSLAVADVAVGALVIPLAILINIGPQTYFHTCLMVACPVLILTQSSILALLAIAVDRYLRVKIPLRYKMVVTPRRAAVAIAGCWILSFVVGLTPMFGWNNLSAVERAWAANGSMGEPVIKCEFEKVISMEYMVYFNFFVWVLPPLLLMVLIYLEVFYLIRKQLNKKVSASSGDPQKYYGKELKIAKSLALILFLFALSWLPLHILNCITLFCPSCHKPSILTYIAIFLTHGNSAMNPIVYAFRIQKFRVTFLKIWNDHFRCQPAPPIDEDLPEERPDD
From the text: Compounds that show a decrease in efficacy are likely to act as low efficacy partial agonists.

[14] = system: isolated perfused superior mesenteric arterial bed of the rat; details: pH of the perfusate reduced to 6.8; cited from earlier work
[15] = pH 6.2, read-out: Ki High affinity
[16] = pH 6.2, read-out: Ki Low affinity
[17] = pH 7.4, read-out: Ki High affinity
[18] = pH 7.4, read-out: Ki Low affinity

T2 sequence (P30543 whole entry): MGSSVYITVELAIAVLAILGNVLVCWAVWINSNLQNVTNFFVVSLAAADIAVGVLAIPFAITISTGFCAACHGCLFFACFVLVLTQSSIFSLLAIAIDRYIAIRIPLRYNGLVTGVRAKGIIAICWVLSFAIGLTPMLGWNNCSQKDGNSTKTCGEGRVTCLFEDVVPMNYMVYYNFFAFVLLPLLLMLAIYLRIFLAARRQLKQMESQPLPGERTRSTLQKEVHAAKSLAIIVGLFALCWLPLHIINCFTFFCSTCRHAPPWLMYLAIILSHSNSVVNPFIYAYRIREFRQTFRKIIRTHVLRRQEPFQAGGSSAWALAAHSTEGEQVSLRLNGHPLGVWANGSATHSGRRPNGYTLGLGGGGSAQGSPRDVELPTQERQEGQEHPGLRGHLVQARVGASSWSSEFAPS
T3 sequence (P29274 whole entry): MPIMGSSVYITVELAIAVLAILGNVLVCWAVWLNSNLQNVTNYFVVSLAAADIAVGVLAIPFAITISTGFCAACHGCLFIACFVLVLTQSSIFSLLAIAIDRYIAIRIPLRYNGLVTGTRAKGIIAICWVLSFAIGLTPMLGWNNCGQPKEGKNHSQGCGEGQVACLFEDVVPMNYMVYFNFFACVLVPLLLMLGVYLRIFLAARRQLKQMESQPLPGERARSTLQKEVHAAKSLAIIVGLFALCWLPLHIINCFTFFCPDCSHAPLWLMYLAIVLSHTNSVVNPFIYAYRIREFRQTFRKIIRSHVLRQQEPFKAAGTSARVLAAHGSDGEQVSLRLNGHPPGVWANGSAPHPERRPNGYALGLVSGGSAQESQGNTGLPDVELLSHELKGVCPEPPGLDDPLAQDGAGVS

With `Nc1nc(Cl)nc2c1ncn2[C@@H]1O[C@H](CO)[C@@H](O)[C@H]1O` [2-chloroadenosine, reference compound] the Ki [1, 15] was 0.0037 µM, the Ki [1, 16] was 1.66 µM and the Ki [1, 17] was 0.0044 µM. It also gave a Ki [1, 18] of 1.67 µM.

In the case of `CCOc1nc(N)c2ncn([C@@H]3O[C@H](CO)[C@@H](O)[C@H]3O)c2n1` [2-ethoxyadenosine], the “number of affinity states revealed” value [2] is reported as “two apparent affinity states”, the “high affinity states as proportion of the total number of binding sites” value [2] is reported as “approximately 25%” and the “effect of GTP on the high affinity states” value [2] is reported as “abolished”. It also gave a Ki ([3]; Ki High affinity, pH 5.5) of 0.0028 µM, a Ki ([3]; Ki High affinity, pH 7.4) of 0.245 µM and a Ki ([3]; Ki Low affinity, pH 5.5) of 1.2 µM. It also gave a Ki ([3]; Ki Low affinity, pH 7.4) of 6.6 µM.

In the case of `COc1nc(N)c2ncn([C@@H]3O[C@H](CO)[C@@H](O)[C@H]3O)c2n1` [2-methoxyadenosine], the “reduction in heart rate” value [4] is listed as 25%, the “reduction in mean blood pressure” value [4] is listed as 41% and the “number of affinity states revealed” value [2] is listed as “two apparent affinity states”. The “high affinity states as proportion of the total number of binding sites” value [2] was “approximately 25%”, the “Ki High affinity” value ([2]; pH 7.4) was “High affinity not detectable” and the “change of affinity as the pH is reduced” value ([2]; pH from 7.4 to 7.0 to 6.8, FIG. 2) was “increases as the pH is reduced”. The “effect of GTP on the high affinity states” value [2] was “abolished”, the “plasma concentration with profound anti-hyperalgesic and anti-inflammatory activity” value [5] was ≤ 0.2 µM and the “carrageenan induced inflammation (paw volume)” value [6] was “Inhibits”. The “thermal hyperalgesia, chronic constriction injury” value [7] was “inhibits”, the “inhibition of carageenan-induced inflammation” value [8] was 25% and the Ki ([3]; Ki High affinity, pH 5.5) was 0.0121 µM. The Ki ([3]; Ki Low affinity, pH 5.5) was 1.2 µM, the Ki ([3]; Ki Low affinity, pH 7.4) was 2.5 µM and the EC50 ([9]; Daly et al. 1993, read-out: EC50 at the adenosine A2A receptor) was 3 µM. For the same molecule, the “EC50 at adenosine receptors” value ([9]; measured at pH7.4) was 0.9 µg/mL (≈ 3.03 µM), the EC50 ([9]; measured at pH7.4, read-out: EC50 at adenosine receptors) was 3 µM and the “effect on blood pressure” value [10] was “no Significant Effect”. For the same molecule, the “effect on heart rate” value [10] was “no Significant Effect”, the “carrageenan induced thermal hyperalgesia” value [11] was “inhibits” and the “efficacy at pH7.0 compared to pH7.4” value ([12]; cAMP accumulation in the presence of rolipram) was “Increased”. The “increase in efficacy at the adenosine A2A receptor” value ([12]; pH7.0 compared to pH7.4, FIG. 3) was “approximately 100 fold”.

In the case of `Nc1nc(Cl)nc2c1ncn2[C@@H]1O[C@H](CO)C[C@H]1O` [3′-deoxy-2-chloroadenosine], the “effect of GppNHp on the high affinity state” value ([1]; both pH values (7.4 and 6.2)) is reported as “abolished”, the Ki [1, 15] is reported as 0.017 µM and the Ki [1, 16] is reported as 13.4 µM. The Ki [1, 17] was 0.227 µM and the Ki [1, 18] was 11.5 µM.

In the case of `COc1nc(N)c2ncn([C@@H]3O[C@H](CO)C[C@H]3O)c2n1` [3′-deoxy-2-methoxyadenosine], the Ki ([13]; pH 6.2) is reported as 0.405 ± 0.114 µM and the Ki ([13]; pH 7.4) is reported as 0.158 ± 0.085 µM.

With `Nc1nc(Nc2ccccc2)nc2c1ncn2[C@@H]1O[C@H](CO)[C@@H](O)[C@H]1O` [CV1808, 2-phenylamino-adenosine, reference compound] the Ki ([3]; Ki, pH5.5, one affinity state) was 0.035 ± 0.009 µM and the Ki ([3]; Ki, pH 7.4, one affinity state) was 0.17 ± 0.02 µM.

In the case of `Nc1ncnc2c1ncn2[C@@H]1O[C@H](CO)[C@@H](O)[C@H]1O` [adenosine], the “enhancement of dilator responses” value [14] is listed as 10 fold.
